Results as given in ChEMBL document CHEMBL1201862, “PubChem BioAssay data set” (2004).
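Exposure lasted 48 hours, with cells grown in 96-well plates and compounds tested at five concentrations. GI50 is the concentration that inhibits growth by half.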 Calls of active or inactive are those of the source. Cut-off read from the data, not from the text of the source: active = GI50 up to about 1.1 µM and inactive = higher.

Tests used:
Assay in all cases: NCI-60 cell line screen, 48 h
[1] = tested on: EKVX
[2] = tested on: HCC 2998
[3] = tested on: HOP-92
[4] = tested on: MOLT-4
[5] = tested on: NCI-H23
[6] = tested on: RPMI-8226
[7] = tested on: SK-MEL-28
[8] = tested on: SK-MEL-5
[9] = tested on: SK-OV-3
[10] = tested on: SNB-19
[11] = tested on: SW-620
[12] = tested on: TK-10
[13] = tested on: U-251
[14] = tested on: UACC-62
[15] = tested on: CAKI-1
[16] = tested on: NCI-H226
[17] = tested on: SF-268
[18] = tested on: UO-31

C/C(=N\N=C(\N)S)c1ccc(Oc2ccccc2)cc1
GI50 [1]: 12.2 µM (inactive)
GI50 [2]: 7.93 µM (inactive)
GI50 [3]: 3.65 µM (inactive)
GI50 [4]: 0.971 µM (active)
GI50 [5]: 11.8 µM (inactive)
GI50 [6]: 1.78 µM (inactive)
GI50 [7]: 11.7 µM (inactive)
GI50 [8]: 5.12 µM (inactive)
GI50 [9]: 16.2 µM (inactive)
GI50 [10]: 16 µM (inactive)
GI50 [11]: 16.3 µM (inactive)
GI50 [12]: 4.09 µM (inactive)
GI50 [13]: 15.4 µM (inactive)
GI50 [14]: 10.6 µM (inactive)

O=C(C#Cc1ccccc1)Nc1ccccc1CC(c1c[nH]c2ccccc12)c1c[nH]c2ccccc12
GI50 [15]: 16.9 µM (inactive)
GI50 [1]: 12.3 µM (inactive)
GI50 [2]: 23.2 µM (inactive)
GI50 [4]: 3.33 µM (inactive)
GI50 [16]: 16.6 µM (inactive)
GI50 [5]: 15.4 µM (inactive)
GI50 [6]: 3.52 µM (inactive)
GI50 [17]: 25.4 µM (inactive)
GI50 [7]: 15.5 µM (inactive)
GI50 [8]: 17.9 µM (inactive)
GI50 [9]: 33.2 µM (inactive)
GI50 [10]: 26 µM (inactive)
GI50 [11]: 12.1 µM (inactive)
GI50 [12]: 31.5 µM (inactive)
GI50 [14]: 7.5 µM (inactive)
GI50 [18]: 13.5 µM (inactive)

O=C(c1cccc2ccccc12)C1(Br)S(=O)(=O)OCCOS1(=O)=O
GI50 [15]: > 100 µM (inactive)
GI50 [1]: > 100 µM (inactive)
GI50 [2]: > 100 µM (inactive)
GI50 [3]: > 10 µM (inactive)
GI50 [4]: > 100 µM (inactive)
GI50 [5]: > 100 µM (inactive)
GI50 [6]: > 100 µM (inactive)
GI50 [7]: > 100 µM (inactive)
GI50 [8]: > 100 µM (inactive)
GI50 [10]: > 100 µM (inactive)
GI50 [12]: > 100 µM (inactive)
GI50 [13]: > 100 µM (inactive)
GI50 [18]: > 100 µM (inactive)

COc1ccc(OC)c(NC(=O)C2=C(C)NC(C)=C(C(=O)Nc3cc(OC)ccc3OC)C2c2ccco2)c1
GI50 [15]: 89.5 µM (inactive)
GI50 [1]: > 100 µM (inactive)
GI50 [3]: > 100 µM (inactive)
GI50 [4]: 27.7 µM (inactive)
GI50 [16]: > 100 µM (inactive)
GI50 [5]: > 100 µM (inactive)
GI50 [6]: 63 µM (inactive)
GI50 [17]: > 100 µM (inactive)
GI50 [8]: 51.3 µM (inactive)
GI50 [9]: > 100 µM (inactive)
GI50 [10]: > 100 µM (inactive)
GI50 [11]: > 100 µM (inactive)
GI50 [12]: > 100 µM (inactive)
GI50 [13]: > 100 µM (inactive)
GI50 [14]: > 100 µM (inactive)
GI50 [18]: > 100 µM (inactive)

N/C(=C\c1ccc(OCc2ccccc2)c(OCc2ccccc2)c1[N+](=O)[O-])C(=O)O
GI50 [1]: > 100 µM (inactive)
GI50 [2]: > 100 µM (inactive)
GI50 [3]: > 100 µM (inactive)
GI50 [4]: > 100 µM (inactive)
GI50 [16]: > 100 µM (inactive)
GI50 [5]: > 100 µM (inactive)
GI50 [6]: > 100 µM (inactive)
GI50 [17]: > 100 µM (inactive)
GI50 [7]: > 100 µM (inactive)
GI50 [8]: > 100 µM (inactive)
GI50 [9]: > 100 µM (inactive)
GI50 [10]: > 100 µM (inactive)
GI50 [11]: > 100 µM (inactive)
GI50 [12]: > 100 µM (inactive)
GI50 [13]: > 100 µM (inactive)
GI50 [14]: > 100 µM (inactive)
GI50 [18]: > 100 µM (inactive)

COc1ccc(/C(Cl)=C/c2cc(OC)ccc2OC)cc1
GI50 [1]: > 100 µM (inactive)
GI50 [2]: 87.5 µM (inactive)
GI50 [3]: 40.8 µM (inactive)
GI50 [4]: 49.9 µM (inactive)
GI50 [16]: 44.7 µM (inactive)
GI50 [5]: 53 µM (inactive)
GI50 [6]: 34.2 µM (inactive)
GI50 [17]: 58.2 µM (inactive)
GI50 [7]: 79.6 µM (inactive)
GI50 [8]: 64.7 µM (inactive)
GI50 [9]: 99.8 µM (inactive)
GI50 [10]: > 100 µM (inactive)
GI50 [11]: 48.1 µM (inactive)
GI50 [13]: 84.7 µM (inactive)
GI50 [14]: 38.4 µM (inactive)
GI50 [18]: 98.9 µM (inactive)

COc1cc2c3c(c1OCc1ccccc1)NCCC3NCC2 (centres undefined)
GI50 [15]: > 100 µM (inactive)
GI50 [1]: > 100 µM (inactive)
GI50 [2]: > 100 µM (inactive)
GI50 [3]: 86.1 µM (inactive)
GI50 [4]: > 100 µM (inactive)
GI50 [16]: > 100 µM (inactive)
GI50 [5]: > 100 µM (inactive)
GI50 [6]: > 100 µM (inactive)
GI50 [17]: > 100 µM (inactive)
GI50 [8]: > 100 µM (inactive)
GI50 [10]: > 100 µM (inactive)
GI50 [11]: > 100 µM (inactive)
GI50 [12]: > 100 µM (inactive)
GI50 [13]: > 100 µM (inactive)
GI50 [14]: > 100 µM (inactive)
GI50 [18]: 51.6 µM (inactive)

CCN(CC)c1ccc(C2N3CCCCC3[C@@H]3c4[nH]c5ccccc5c4CCN23)cc1 (some centres undefined)
GI50 [15]: 74.3 µM (inactive)
GI50 [1]: 74.8 µM (inactive)
GI50 [3]: 38.1 µM (inactive)
GI50 [4]: 25.5 µM (inactive)
GI50 [5]: 34.9 µM (inactive)
GI50 [6]: 12.8 µM (inactive)
GI50 [17]: 22.1 µM (inactive)
GI50 [7]: 25.9 µM (inactive)
GI50 [8]: 17.3 µM (inactive)
GI50 [9]: 69.7 µM (inactive)
GI50 [10]: 32.5 µM (inactive)
GI50 [11]: 33.5 µM (inactive)
GI50 [12]: 27.2 µM (inactive)
GI50 [13]: 29.6 µM (inactive)
GI50 [14]: 19.5 µM (inactive)
GI50 [18]: 27 µM (inactive)

CCCCN(CCCC)CC(C(=O)Nc1ccc([N+](=O)[O-])cc1[N+](=O)[O-])/C(C)=N\NC(=S)NN (centres undefined)
GI50 [1]: 65.6 µM (inactive)
GI50 [2]: > 100 µM (inactive)
GI50 [3]: 42.1 µM (inactive)
GI50 [4]: 70 µM (inactive)
GI50 [16]: > 100 µM (inactive)
GI50 [5]: > 100 µM (inactive)
GI50 [6]: 50.1 µM (inactive)
GI50 [17]: > 100 µM (inactive)
GI50 [7]: > 100 µM (inactive)
GI50 [8]: > 100 µM (inactive)
GI50 [9]: > 100 µM (inactive)
GI50 [11]: > 100 µM (inactive)
GI50 [12]: > 100 µM (inactive)
GI50 [13]: > 100 µM (inactive)
GI50 [14]: > 100 µM (inactive)
GI50 [18]: 26.9 µM (inactive)

CN(C)c1nc(N(C)C)nc(N(C)CN(C)c2nc(N(C)C)nc(N(C)C)n2)n1
GI50 [15]: > 100 µM (inactive)
GI50 [1]: > 100 µM (inactive)
GI50 [2]: > 100 µM (inactive)
GI50 [3]: > 100 µM (inactive)
GI50 [4]: > 100 µM (inactive)
GI50 [5]: > 100 µM (inactive)
GI50 [6]: > 100 µM (inactive)
GI50 [17]: > 100 µM (inactive)
GI50 [7]: > 100 µM (inactive)
GI50 [8]: > 100 µM (inactive)
GI50 [9]: > 100 µM (inactive)
GI50 [10]: > 100 µM (inactive)
GI50 [11]: > 100 µM (inactive)
GI50 [12]: > 100 µM (inactive)
GI50 [13]: > 100 µM (inactive)
GI50 [14]: > 100 µM (inactive)
GI50 [18]: > 100 µM (inactive)

O[C@]12CCCC[C@H]1CCC2
GI50 [15]: > 100 µM (inactive)
GI50 [1]: > 100 µM (inactive)
GI50 [2]: > 100 µM (inactive)
GI50 [3]: > 100 µM (inactive)
GI50 [4]: > 100 µM (inactive)
GI50 [5]: > 100 µM (inactive)
GI50 [6]: > 100 µM (inactive)
GI50 [17]: > 100 µM (inactive)
GI50 [7]: > 100 µM (inactive)
GI50 [8]: > 100 µM (inactive)
GI50 [9]: > 100 µM (inactive)
GI50 [10]: > 100 µM (inactive)
GI50 [11]: > 100 µM (inactive)
GI50 [12]: > 100 µM (inactive)
GI50 [13]: > 100 µM (inactive)
GI50 [14]: > 100 µM (inactive)
GI50 [18]: > 100 µM (inactive)

Cc1ccc(O)c(/N=N/c2ccc(S(=O)(=O)O)cc2)n1
GI50 [15]: > 100 µM (inactive)
GI50 [1]: 21 µM (inactive)
GI50 [3]: > 100 µM (inactive)
GI50 [4]: > 100 µM (inactive)
GI50 [5]: > 100 µM (inactive)
GI50 [6]: > 100 µM (inactive)
GI50 [17]: > 100 µM (inactive)
GI50 [7]: > 100 µM (inactive)
GI50 [8]: > 100 µM (inactive)
GI50 [9]: > 100 µM (inactive)
GI50 [11]: > 100 µM (inactive)
GI50 [12]: > 100 µM (inactive)
GI50 [13]: > 100 µM (inactive)
GI50 [14]: > 100 µM (inactive)
GI50 [18]: > 100 µM (inactive)
